The supplement of paper PMC10132981, “Formate overflow drives toxic folate trapping in MTHFD1 inhibited cancer cells” (Nature Metabolism, 2023)
± gives the standard deviation of the averaged measurements.

System: SW620 MTHFD2-/-
Assay: cell viability relative to vehicle (resazurin, 96 h); higher = more viable
Conditions: base medium: RPMI + dialysed FBS
Experimental: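 SW620 WT or MTHFD2-/- cells were treated for 96 h with a compound dilution series (log10 M) in RPMI with normal or dialysed FBS. Viability was read by resazurin and is given as % of vehicle.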

CN(Cc1cnc2nc(N)nc(N)c2n1)c1ccc(C(=O)N[C@@H](CCC(=O)O)C(=O)O)cc1 [methotrexate]
Conditions	cell viability [%]
log10 compound concentration (M): -6, supplement / serum: 50 μM Hypoxanthine	6.45 ± 1.8
log10 compound concentration (M): -6, supplement / serum: 50 μM Thymidine	6.68 ± 2
log10 compound concentration (M): -6, supplement / serum: 50 μM Thymidine + 50 μM Hypoxanthine	111 ± 30
log10 compound concentration (M): -6, supplement / serum: Hypoxanthine	6.76 ± 0.79
log10 compound concentration (M): -6, supplement / serum: Hypoxanthine+Sodium Formate	6.18 ± 0.99
log10 compound concentration (M): -6, supplement / serum: Hypoxanthine+Sodium Formate+Thymidine	93.3 ± 22
log10 compound concentration (M): -6, supplement / serum: No metabolite	7.7 ± 3.4
log10 compound concentration (M): -6, supplement / serum: Sodium Formate	7.05 ± 0.31
log10 compound concentration (M): -6, supplement / serum: Vehicle	7.38 ± 2
log10 compound concentration (M): -6.47712, supplement / serum: 50 μM Hypoxanthine	6.99 ± 0.59
log10 compound concentration (M): -6.47712, supplement / serum: 50 μM Thymidine	7.63 ± 1.5
log10 compound concentration (M): -6.47712, supplement / serum: 50 μM Thymidine + 50 μM Hypoxanthine	115 ± 30
log10 compound concentration (M): -6.47712, supplement / serum: Hypoxanthine	7.12 ± 0.93
log10 compound concentration (M): -6.47712, supplement / serum: Hypoxanthine+Sodium Formate	6.79 ± 1.1
log10 compound concentration (M): -6.47712, supplement / serum: Hypoxanthine+Sodium Formate+Thymidine	112 ± 12
log10 compound concentration (M): -6.47712, supplement / serum: No metabolite	7.99 ± 1.3
log10 compound concentration (M): -6.47712, supplement / serum: Sodium Formate	7.19 ± 0.6
log10 compound concentration (M): -6.47712, supplement / serum: Vehicle	7.78 ± 0.39
log10 compound concentration (M): -6.95424, supplement / serum: 50 μM Hypoxanthine	7.25 ± 0.99
log10 compound concentration (M): -6.95424, supplement / serum: 50 μM Thymidine	7.71 ± 0.92
log10 compound concentration (M): -6.95424, supplement / serum: 50 μM Thymidine + 50 μM Hypoxanthine	111 ± 12
log10 compound concentration (M): -6.95424, supplement / serum: Hypoxanthine	7.47 ± 1.2
log10 compound concentration (M): -6.95424, supplement / serum: Hypoxanthine+Sodium Formate	7.62 ± 1.2
log10 compound concentration (M): -6.95424, supplement / serum: Hypoxanthine+Sodium Formate+Thymidine	107 ± 6.9
log10 compound concentration (M): -6.95424, supplement / serum: No metabolite	8.02 ± 0.63
log10 compound concentration (M): -6.95424, supplement / serum: Sodium Formate	7.59 ± 0.76
log10 compound concentration (M): -6.95424, supplement / serum: Vehicle	7.71 ± 1.6
log10 compound concentration (M): -7.43136, supplement / serum: 50 μM Hypoxanthine	14.5 ± 2.3
log10 compound concentration (M): -7.43136, supplement / serum: 50 μM Thymidine	7.18 ± 1
log10 compound concentration (M): -7.43136, supplement / serum: 50 μM Thymidine + 50 μM Hypoxanthine	95.6 ± 1.9
log10 compound concentration (M): -7.43136, supplement / serum: Hypoxanthine	11.5 ± 3.9
log10 compound concentration (M): -7.43136, supplement / serum: Hypoxanthine+Sodium Formate	11.1 ± 2.4
log10 compound concentration (M): -7.43136, supplement / serum: Hypoxanthine+Sodium Formate+Thymidine	98.6 ± 4.9
log10 compound concentration (M): -7.43136, supplement / serum: No metabolite	7.722 ± 0.021
log10 compound concentration (M): -7.43136, supplement / serum: Sodium Formate	7.53 ± 1.1
log10 compound concentration (M): -7.43136, supplement / serum: Vehicle	7.22 ± 0.77
log10 compound concentration (M): -7.90849, supplement / serum: 50 μM Hypoxanthine	70.7 ± 11
log10 compound concentration (M): -7.90849, supplement / serum: 50 μM Thymidine	12.3 ± 0.92
log10 compound concentration (M): -7.90849, supplement / serum: 50 μM Thymidine + 50 μM Hypoxanthine	106 ± 17
log10 compound concentration (M): -7.90849, supplement / serum: Hypoxanthine	54.5 ± 34
log10 compound concentration (M): -7.90849, supplement / serum: Hypoxanthine+Sodium Formate	55.4 ± 34
log10 compound concentration (M): -7.90849, supplement / serum: Hypoxanthine+Sodium Formate+Thymidine	102 ± 7.2
log10 compound concentration (M): -7.90849, supplement / serum: No metabolite	10.5 ± 0.51
log10 compound concentration (M): -7.90849, supplement / serum: Sodium Formate	11.5 ± 2.8
log10 compound concentration (M): -7.90849, supplement / serum: Vehicle	8.29 ± 3.2
log10 compound concentration (M): -8.38561, supplement / serum: 50 μM Hypoxanthine	76.3 ± 13
log10 compound concentration (M): -8.38561, supplement / serum: 50 μM Thymidine	14.7 ± 1.2
log10 compound concentration (M): -8.38561, supplement / serum: 50 μM Thymidine + 50 μM Hypoxanthine	102 ± 3.9
log10 compound concentration (M): -8.38561, supplement / serum: Hypoxanthine	74.7 ± 3.3
log10 compound concentration (M): -8.38561, supplement / serum: Hypoxanthine+Sodium Formate	79.4 ± 7.5
log10 compound concentration (M): -8.38561, supplement / serum: Hypoxanthine+Sodium Formate+Thymidine	84.7 ± 16
log10 compound concentration (M): -8.38561, supplement / serum: No metabolite	9.121 ± 0.06
log10 compound concentration (M): -8.38561, supplement / serum: Sodium Formate	33.1 ± 28
log10 compound concentration (M): -8.38561, supplement / serum: Vehicle	15.5 ± 11
log10 compound concentration (M): -8.86273, supplement / serum: 50 μM Hypoxanthine	92.6 ± 1.9
log10 compound concentration (M): -8.86273, supplement / serum: 50 μM Thymidine	66.7 ± 2.4
log10 compound concentration (M): -8.86273, supplement / serum: 50 μM Thymidine + 50 μM Hypoxanthine	109 ± 8.3
log10 compound concentration (M): -8.86273, supplement / serum: Hypoxanthine	92.5 ± 8.8
log10 compound concentration (M): -8.86273, supplement / serum: Hypoxanthine+Sodium Formate	97.5 ± 5.6
log10 compound concentration (M): -8.86273, supplement / serum: Hypoxanthine+Sodium Formate+Thymidine	91.4 ± 13
log10 compound concentration (M): -8.86273, supplement / serum: No metabolite	47.4 ± 7.7
log10 compound concentration (M): -8.86273, supplement / serum: Sodium Formate	72.7 ± 24
log10 compound concentration (M): -8.86273, supplement / serum: Vehicle	45.5 ± 30
log10 compound concentration (M): -9.33985, supplement / serum: 50 μM Hypoxanthine	100 ± 1.1
log10 compound concentration (M): -9.33985, supplement / serum: 50 μM Thymidine + 50 μM Hypoxanthine	102 ± 2.3
